In ChEMBL document CHEMBL1201862, “PubChem BioAssay data set” (2004):
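Where inhibition never reached the appropriate level, the endpoint shown equals the highest concentration tested. Otherwise, values were interpolated linearly from a five-concentration, 48-hour dose response in 96-well plates. At the GI50, growth is halved.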 Calls of active or inactive are those of the source. No stated cut-off is given here; in the data, active = GI50 up to about 1.1 µM and inactive = higher.

Assays:
Test in all cases: DTP human tumour cell line panel, 48 h
RPMI-8226 = tested on: RPMI-8226
IGROV-1 = tested on: IGROV-1
SF-268 = tested on: SF-268
RXF 393 = tested on: RXF 393
HOP-92 = tested on: HOP-92
SK-MEL-5 = tested on: SK-MEL-5
ACHN = tested on: ACHN
786-0 = tested on: 786-0
OVCAR-3 = tested on: OVCAR-3
MDA-MB-435 = tested on: MDA-MB-435
SK-MEL-28 = tested on: SK-MEL-28
UACC-257 = tested on: UACC-257
NCI-H23 = tested on: NCI-H23
PC-3 = tested on: PC-3
HOP-62 = tested on: HOP-62
HL-60 = tested on: HL-60
MCF7 = tested on: MCF7
CAKI-1 = tested on: CAKI-1
OVCAR-4 = tested on: OVCAR-4

Measured: GI50

CC(C)(C)OC(=O)NCCCCC1NC(=O)[C@@H]2Cc3c([nH]c4ccccc34)C(C3CCCCC3)N2C1=O (stereo partly drawn)
inactive: RPMI-8226 12.2 µM | IGROV-1 56.5 µM | SF-268 54.1 µM | RXF 393 4.23 µM | HOP-92 26 µM | SK-MEL-5 33.6 µM | ACHN 45.6 µM | 786-0 27 µM | OVCAR-3 10.6 µM | MDA-MB-435 23.6 µM | SK-MEL-28 85.1 µM | UACC-257 35.7 µM | NCI-H23 49.8 µM | PC-3 18.3 µM | HOP-62 41.4 µM | HL-60 31.1 µM | MCF7 30.6 µM | CAKI-1 56.6 µM | OVCAR-4 35.8 µM

C=C1C2CCC3(CCC4C5(C)CCCC4(C=[N+](CCO)C5)C3C2)C1O (stereo not drawn)
inactive: RPMI-8226 > 100 µM | IGROV-1 > 100 µM | SF-268 > 100 µM | RXF 393 > 100 µM | HOP-92 > 100 µM | SK-MEL-5 > 100 µM | ACHN > 100 µM | 786-0 > 100 µM | OVCAR-3 > 100 µM | MDA-MB-435 > 100 µM | SK-MEL-28 > 100 µM | UACC-257 > 100 µM | NCI-H23 > 100 µM | PC-3 > 100 µM | HOP-62 > 100 µM | HL-60 > 100 µM | MCF7 > 100 µM | CAKI-1 > 100 µM | OVCAR-4 > 100 µM

COc1ccc2nc3ccc(OC)cc3c(SCCO)c2c1
inactive: RPMI-8226 12.3 µM | IGROV-1 15 µM | SF-268 25.2 µM | RXF 393 12.6 µM | HOP-92 > 67.5 µM | SK-MEL-5 32.1 µM | ACHN 23.7 µM | 786-0 14.4 µM | OVCAR-3 36 µM | MDA-MB-435 21.5 µM | SK-MEL-28 55.8 µM | UACC-257 32.7 µM | NCI-H23 16.2 µM | PC-3 27.4 µM | HOP-62 > 58.9 µM | HL-60 4.17 µM | MCF7 6.01 µM | CAKI-1 13.4 µM | OVCAR-4 63.8 µM

COc1cc([C@@H]2c3cc4c(cc3[C@H](OC3OC5COC(C(C)C)OC5C(O)C3O)C3COC(=O)[C@@H]32)OCO4)cc(OC)c1O (stereo partly drawn)
inactive: RPMI-8226 5.2 µM | IGROV-1 5.21 µM | SF-268 9.86 µM | RXF 393 4.76 µM | HOP-92 11.9 µM | SK-MEL-5 7.33 µM | ACHN 3.51 µM | 786-0 10 µM | OVCAR-3 11.8 µM | MDA-MB-435 4.58 µM | UACC-257 8.87 µM | NCI-H23 4.03 µM | PC-3 4.08 µM | HOP-62 11.7 µM | HL-60 1.99 µM | MCF7 3.6 µM | CAKI-1 4.27 µM | OVCAR-4 15.1 µM

CNC(=O)CNC(=O)C(Cc1ccc(NC(=O)CCCCC(C)=O)cc1)NC(=O)C(CCC(=O)OCc1ccccc1)NC(=O)OC(C)(C)C (stereo not drawn)
inactive: RPMI-8226 > 100 µM | IGROV-1 > 100 µM | SF-268 > 100 µM | RXF 393 > 100 µM | HOP-92 > 100 µM | SK-MEL-5 > 100 µM | ACHN > 100 µM | 786-0 > 100 µM | OVCAR-3 > 100 µM | MDA-MB-435 > 100 µM | SK-MEL-28 > 100 µM | NCI-H23 > 100 µM | PC-3 > 100 µM | HOP-62 > 100 µM | HL-60 > 100 µM | MCF7 > 100 µM | CAKI-1 > 100 µM | OVCAR-4 > 100 µM

N=C1OC(CN2CCN(c3ccccc3)CC2)CN1C(=O)Nc1ccccc1 (stereo not drawn)
inactive: RPMI-8226 > 100 µM | IGROV-1 > 100 µM | SF-268 > 100 µM | RXF 393 > 100 µM | HOP-92 > 100 µM | SK-MEL-5 > 100 µM | ACHN > 100 µM | 786-0 > 100 µM | MDA-MB-435 > 100 µM | SK-MEL-28 > 100 µM | UACC-257 > 100 µM | NCI-H23 > 100 µM | PC-3 > 100 µM | HOP-62 > 100 µM | HL-60 53.5 µM | MCF7 > 100 µM | CAKI-1 > 100 µM | OVCAR-4 > 100 µM

O=C(O)CCC(=O)c1ccc2c(c1)C(C(=O)O)CC2 (stereo not drawn)
inactive: RPMI-8226 > 100 µM | IGROV-1 > 100 µM | SF-268 > 100 µM | HOP-92 > 100 µM | SK-MEL-5 > 100 µM | ACHN > 100 µM | 786-0 > 100 µM | OVCAR-3 > 100 µM | MDA-MB-435 > 100 µM | SK-MEL-28 > 100 µM | UACC-257 > 100 µM | NCI-H23 > 100 µM | PC-3 > 100 µM | HOP-62 > 100 µM | HL-60 > 100 µM | MCF7 > 100 µM | OVCAR-4 > 100 µM
active: RXF 393 0.286 µM

CCOc1ccc(/N=N/c2ccc3cc(/C(C)=N/NC(=O)/C(C#N)=C\c4ccc(N(CCC#N)CCC#N)cc4)c(=O)oc3c2)cc1
inactive: RPMI-8226 > 10 µM | IGROV-1 > 10 µM | SF-268 > 10 µM | RXF 393 > 10 µM | HOP-92 > 10 µM | SK-MEL-5 > 10 µM | ACHN > 10 µM | 786-0 > 10 µM | OVCAR-3 > 10 µM | MDA-MB-435 > 10 µM | SK-MEL-28 > 10 µM | UACC-257 > 10 µM | NCI-H23 > 10 µM | PC-3 > 10 µM | HOP-62 > 10 µM | HL-60 > 10 µM | MCF7 > 10 µM | CAKI-1 > 10 µM | OVCAR-4 > 10 µM

COc1ccc(C2(CC(C)C)CCNC2)cc1OC (stereo not drawn)
inactive: RPMI-8226 61.1 µM | IGROV-1 26.5 µM | SF-268 78.7 µM | RXF 393 41.9 µM | HOP-92 19.8 µM | SK-MEL-5 > 100 µM | ACHN > 100 µM | 786-0 > 100 µM | MDA-MB-435 > 100 µM | SK-MEL-28 > 100 µM | UACC-257 > 100 µM | NCI-H23 78.2 µM | PC-3 > 100 µM | HOP-62 82.2 µM | HL-60 > 100 µM | MCF7 84.1 µM | CAKI-1 > 100 µM | OVCAR-4 > 100 µM

COC(=O)c1c2c(cc3c1CC1(C3)Cc3ccc4c(c3C1=O)CCC4)CCC2 (stereo not drawn)
inactive: RPMI-8226 3.23 µM | IGROV-1 4.99 µM | SF-268 6.31 µM | HOP-92 1.84 µM | SK-MEL-5 2.38 µM | ACHN 5.15 µM | 786-0 3.51 µM | OVCAR-3 1.94 µM | SK-MEL-28 6.67 µM | UACC-257 5.04 µM | NCI-H23 3.74 µM | PC-3 1.79 µM | HOP-62 3.25 µM | HL-60 2.52 µM | MCF7 2.45 µM | CAKI-1 2.26 µM | OVCAR-4 10.2 µM
active: RXF 393 0.537 µM | MDA-MB-435 0.6 µM

Cc1cn(CCCCCOC(=O)NC(CCCNC(=N)N)C(=O)O)c(=O)[nH]c1=O (stereo not drawn)
inactive: RPMI-8226 11.7 µM | IGROV-1 38.1 µM | SF-268 > 100 µM | RXF 393 33.3 µM | HOP-92 > 100 µM | ACHN 72.3 µM | 786-0 39.4 µM | OVCAR-3 50.9 µM | MDA-MB-435 6.32 µM | SK-MEL-28 76.4 µM | UACC-257 > 100 µM | NCI-H23 40.2 µM | PC-3 40.8 µM | HOP-62 > 100 µM | HL-60 17 µM | MCF7 54.7 µM | CAKI-1 37.1 µM | OVCAR-4 > 100 µM

O=C(c1ccc2ccccc2c1)N(Cc1cccnc1)C(=S)N(Cc1cccnc1)C(=O)c1ccc2ccccc2c1
inactive: RPMI-8226 32.9 µM | SF-268 29.2 µM | RXF 393 19.3 µM | HOP-92 26.5 µM | SK-MEL-5 20.6 µM | ACHN 32.1 µM | 786-0 25.2 µM | OVCAR-3 20.5 µM | MDA-MB-435 34 µM | SK-MEL-28 36.9 µM | UACC-257 19.5 µM | NCI-H23 23.1 µM | PC-3 28.3 µM | HOP-62 23.2 µM | HL-60 40.8 µM | MCF7 32.7 µM | CAKI-1 22.2 µM | OVCAR-4 20.7 µM

CC1=C[C@@H](C)C[C@]2(C)CC[C@H](O2)[C@]23CC[C@](C(=O)O)(C[C@H](O2)[C@@H]2O[C@@](C)(CC2=O)[C@@H](O)[C@H]2CC[C@@]4(CCC[C@@H](O4)[C@H](C)C(=O)O[C@H]4C[C@H]([C@]5(O)OCC[C@H](C)[C@@H]5O)O[C@H]4C=C1)O2)O3
inactive: RPMI-8226 > 10 µM | IGROV-1 > 5.5 µM | SF-268 > 10 µM | RXF 393 > 10 µM | HOP-92 > 3.92 µM | SK-MEL-5 > 7.23 µM | ACHN > 10 µM | 786-0 > 10 µM | OVCAR-3 > 10 µM | MDA-MB-435 > 10 µM | SK-MEL-28 > 10 µM | UACC-257 > 10 µM | NCI-H23 > 10 µM | PC-3 > 10 µM | HOP-62 > 9.59 µM | HL-60 > 10 µM | MCF7 > 10 µM | CAKI-1 > 10 µM | OVCAR-4 > 10 µM

Cc1ccc2c(O)cc(-c3cccc4ccccc34)nc2n1
active: RPMI-8226 0.0227 µM | IGROV-1 0.0627 µM | SF-268 0.762 µM | RXF 393 0.497 µM | HOP-92 0.0127 µM | SK-MEL-5 < 0.0117 µM | ACHN 0.102 µM | 786-0 0.0349 µM | OVCAR-3 < 0.0149 µM | MDA-MB-435 < 0.01 µM | SK-MEL-28 0.016 µM | NCI-H23 0.0352 µM | PC-3 0.0282 µM | HL-60 < 0.01 µM | MCF7 0.0256 µM | CAKI-1 0.353 µM | OVCAR-4 0.495 µM
inactive: HOP-62 1.88 µM
